Test results reported in patent US10308605B2, “Proton pump inhibitors” (Takeda Pharmaceutical Company Limited, priority 2004, dated 2019).
Counter-ions that a name gives are not always drawn.

target: proton, potassium-adenosine triphosphatase (H^+,K^+-ATPase) (Sus scrofa (Pig), UniProt P19156); assay: Proton potassium-adenosine triphosphatase (H+,K+-ATPase) inhibitory activity test; format: biochemical; details: swine gastric mucous membrane microsomal fraction, pH 6.5, 37° C.; read-out: H^+/K^+-ATPase inhibitory activity (IC50)
Sequence (P19156 2-1034): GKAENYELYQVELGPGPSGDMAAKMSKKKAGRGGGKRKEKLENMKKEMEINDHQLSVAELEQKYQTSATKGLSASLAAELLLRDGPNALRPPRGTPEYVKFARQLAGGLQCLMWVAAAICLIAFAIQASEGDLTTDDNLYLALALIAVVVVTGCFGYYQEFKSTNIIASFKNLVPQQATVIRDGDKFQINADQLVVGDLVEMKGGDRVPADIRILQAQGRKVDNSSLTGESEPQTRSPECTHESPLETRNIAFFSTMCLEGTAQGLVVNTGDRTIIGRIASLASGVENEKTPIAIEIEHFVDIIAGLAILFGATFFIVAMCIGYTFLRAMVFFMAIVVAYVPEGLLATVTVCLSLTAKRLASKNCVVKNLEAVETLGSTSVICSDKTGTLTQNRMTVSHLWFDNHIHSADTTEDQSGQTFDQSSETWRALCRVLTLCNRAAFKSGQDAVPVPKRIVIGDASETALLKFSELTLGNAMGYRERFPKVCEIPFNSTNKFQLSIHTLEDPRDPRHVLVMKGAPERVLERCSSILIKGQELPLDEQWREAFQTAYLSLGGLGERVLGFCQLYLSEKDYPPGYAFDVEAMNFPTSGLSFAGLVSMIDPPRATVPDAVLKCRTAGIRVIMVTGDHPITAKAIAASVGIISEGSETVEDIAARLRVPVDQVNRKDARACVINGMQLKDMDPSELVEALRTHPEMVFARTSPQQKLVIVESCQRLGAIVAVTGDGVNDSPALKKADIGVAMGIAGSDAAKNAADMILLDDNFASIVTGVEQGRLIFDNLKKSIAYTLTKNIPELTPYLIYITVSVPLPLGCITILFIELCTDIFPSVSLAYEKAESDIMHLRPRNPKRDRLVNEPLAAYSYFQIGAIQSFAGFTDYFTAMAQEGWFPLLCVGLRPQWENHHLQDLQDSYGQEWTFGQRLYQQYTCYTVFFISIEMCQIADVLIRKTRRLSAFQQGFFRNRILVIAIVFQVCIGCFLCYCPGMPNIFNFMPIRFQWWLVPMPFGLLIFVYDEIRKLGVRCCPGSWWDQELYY
Sequence (P18434 whole entry partner): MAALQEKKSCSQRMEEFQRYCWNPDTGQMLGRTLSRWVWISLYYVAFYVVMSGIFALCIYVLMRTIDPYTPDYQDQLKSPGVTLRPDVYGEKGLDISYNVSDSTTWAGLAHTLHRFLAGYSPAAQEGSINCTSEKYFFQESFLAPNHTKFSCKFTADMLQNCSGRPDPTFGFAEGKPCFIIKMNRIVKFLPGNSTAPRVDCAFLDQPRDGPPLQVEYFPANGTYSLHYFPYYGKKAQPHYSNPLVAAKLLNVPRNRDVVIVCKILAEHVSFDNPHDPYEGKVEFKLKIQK
Description: Proton Potassium-adenosine Triphosphatase (H^+,K^+-ATPase) Inhibitory Activity Test
According to the method [Biochem. Biophys. Acta., 728, 31 (1983)] of Wallmark et al., a gastric mucous membrane microsomal fraction was prepared from the stomach of swine. First, the stomach was removed, washed with tap water, immersed in 3 mol/L brine, and the surface of the mucous membrane was wiped with a paper towel. The gastric mucous membrane was detached, chopped, and homogenized in a 0.25 mol/L saccharose solution (pH 6.8) containing 1 mmol/L EDTA and 10 mmol/L tris-hydrochloric acid using polytron (Kinematica). The obtained homogenate was centrifuged at 20,000×g for 30 min and the supernatant was centrifuged at 100,000×g for 90 min. The precipitate was suspended in 0.25 mol/L saccharose solution, superimposed on a 0.25 mol/L saccharose solution containing 7.5% Ficoll, and centrifuged at 100,000×g for 5 hr. The fraction containing the interface between the both layers was recovered, and centrifugally washed with 0.25 mol/L saccharose solution.
The obtained microsomal fraction was used as a proton, potassium-adenosine triphosphatase standard product.
To 40 μL of a 50 mmol/L HEPES-tris buffer (5 mmol/L magnesium chloride, 10 mmol/L potassium chloride, 10 μmol/L valinomycin, pH=6.5) containing 2.5 μg/mL (based on the protein concentration) of the enzyme standard product was added a test compound (5 μL) dissolved in a 10% aqueous dimethyl sulfoxide solution, and the mixture was incubated at 37° C. for 30 min. The enzyme reaction was started by adding 5 μL of a 2 mmol/L adenosine triphosphate tris salt solution (50 mmol/L HEPES-tris buffer (5 mmol/L magnesium chloride, pH 6.5)). The enzyme reaction was carried out at 37° C. for 20 min, and 15 μL of a malachite green solution (0.12% malachite green solution in sulfuric acid (2.5 mol/L), 7.5% ammonium molybdate and 11% Tween 20 were mixed at a ratio of 100:25:2) was added to quench the reaction. After allowing to stand at room temperature for 15 min, the resulting reaction product of inorganic phosphorus with malachite green was colorimetrically determined at a wavelength of 610 nm. In addition, the amount of the inorganic phosphoric acid in the reaction solution free of potassium chloride was measured in the same manner, which was subtracted from the inorganic phosphoric acid amount in the presence of potassium chloride to determine the proton, potassium-adenosine triphosphatase activity. The inhibitory rate (%) was determined from the activity value of the control and the activity values of various concentrations of the test compound, and the 50% inhibitory concentration (IC50) of the proton, potassium-adenosine triphosphatase was determined.

In order of rising IC50:
1. CNCc1cc(-c2ccsc2)n(S(=O)(=O)c2ccccc2)c1 [Example 30, N-methyl-1-[1-(phenylsulfonyl)-5-(3-thienyl)-1H-pyrrol-3-yl]methanamine hydrochloride]  4.2 nM
2. CNCc1cc(-c2ccccc2F)n(S(=O)(=O)c2ccccc2F)c1 [Example 165, 1-{5-(2-Fluorophenyl)-1-[(2-fluorophenyl)sulfonyl]-1H-pyrrol-3-yl}-N-methylmethanamine hydrochloride]  9 nM
3. CNCc1cc(-c2ccccc2)n(S(=O)(=O)c2cc3ccccc3s2)c1 [Example 152, 1-[1-(1-Benzothien-2-ylsulfonyl)-5-phenyl-1H-pyrrol-3-yl]-N-methylmethanamine hydrochloride]  33 nM
4. CNCc1cc(-c2ccccc2C)n(S(=O)(=O)c2cccnc2)c1 [Example 220, N-Methyl-1-[5-(2-methylphenyl)-1-(pyridin-3-ylsulfonyl)-1H-pyrrol-3-yl]methanamine dihydrochloride]  36 nM
5. CNCc1cc(-c2ccccc2)n(S(=O)(=O)c2ccsc2)c1 [Example 43, N-Methyl-1-[5-phenyl-1-(3-thienylsulfonyl)-1H-pyrrol-3-yl]methanamine hydrochloride]  51 nM
6. CNCc1cc(-c2ccccc2F)n(S(=O)(=O)c2cccc(S(C)(=O)=O)c2)c1 [Example 161, 1-[5-(2-Fluorophenyl)-1-{[3-(methylsulfonyl)phenyl]sulfonyl}-1H-pyrrol-3-yl]-N-methylmethanamine hydrochloride]  62 nM
7. CNCc1cc(-c2ccccc2)n(S(=O)(=O)c2cccc(S(C)(=O)=O)c2)c1 [Example 140, N-Methyl-1-(1-{[3-(methylsulfonyl)phenyl]sulfonyl}-5-phenyl-1H-pyrrol-3-yl)methanamine hydrochloride]  78 nM
8. CNCc1cc(-c2ccccc2)n(S(=O)(=O)c2cccc(C(=O)NC)c2)c1 [Example 204, N-Methyl-3-({4-[(methylamino)methyl]-2-phenyl-1H-pyrrol-1-yl}sulfonyl)benzamide hydrochloride]  86 nM

same assay, conditions: swine gastric mucous membrane microsomal fraction, pH 6.5, 37° C.; read-out: IC50

In order of rising IC50:
1. CNCc1cc(-c2ccccc2)n(S(=O)(=O)c2ccc(F)cc2C)c1 [Example 11, 1-{1-[(4-Fluoro-2-methylphenyl)sulfonyl]-5-phenyl-1H-pyrrol-3-yl}-N-methylmethanamine hydrochloride]  51 nM
2. CNCc1cc(-c2cccc(C)c2)n(S(=O)(=O)c2ccc(C)cc2)c1 [Example 7, N-Methyl-1-{5-(3-methylphenyl)-1-[(4-methylphenyl)sulfonyl]-1H-pyrrol-3-yl}methanamine hydrochloride]  91 nM
3. CN(C)Cc1cc(-c2ccccc2)n(S(=O)(=O)c2ccc(C(F)(F)F)cc2)c1 [Example 12, N,N-Dimethyl-1-(5-phenyl-1-{[4-(trifluoromethyl)phenyl]sulfonyl}-1H-pyrrol-3-yl)methanamine hydrochloride]  710 nM
